The source of these data is patent publication US5834453A, “Methods for the manufacture and use of antimicrobial sterol conjugates” (Lehigh University, priority 1997, dated 1998).

≈ marks a conversion by molar mass, not a printed value. Entries after “also recorded” stand apart in the source; their conditions may differ. Like-named read-outs stand apart in the source and are kept apart here. Some results are limits rather than exact numbers.

Data set [1] can be described thus: Hemolytic activity, minimal hemolytic concentration (MHC).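 For MCC: MCC here is the minimal hemolytic concentration (MHC).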 The data set is classed as cell-based, sheep. On the procedure: (§1) Hemolytic activity of the squalamine mimics according to the present invention were also studied by incubating sheep red blood cells for 24 hours at 37° C. in saline (final concentration of 0.5%) with or without respective concentrations of the squalamine mimics. The minimal hemolytic concentration (MHC) was determined as the lowest concentration of a mimic that raised visible hemolysis.

The subject of data set [2] is sheep red blood cells. Described as above. The data set is classed as cell-based. On the procedure: as §1
In data set [3] the test system is C. albicans (90028). Nature of the data set: MIC, micro-broth dilution. The data set is classed as cell-based. As to conditions: Candida albicans, 35° C., 24 hours, read-out: ANTIMICROBIAL ACTIVITY (MIC). On the procedure: (§2) The antimicrobial activity of the compounds according to the present invention were compared with the results obtained for squalamine as reported in Proc. Nat. Acad. Sci. USA 90:1354 (1993), supra, the disclosure of which is incorporated in toto herein. The data reported in the following table is the minimum inhibitory concentration (MIC) required for complete inhibition of microbial growth. The MIC was determined utilizing known micro-broth dilution methods in which inocula of 10^6 /ml of the test organism were incubated in 0.5× trypticase soy broth at 35° C. for 24 hours. MIC's were also tested under various pH conditions, with calcium chloride or magnesium chloride, or with immobilized horse serum.
(§3) The numbers in parentheses contained in the table correspond to accession numbers with the American Type Culture Collection (reference strains were either obtained from the American Type Culture Collection or from the Microbiology Laboratory at Memorial Sloan-Kettering Cancer Center; Bacterial strains were maintained on Columbia 5% sheep blood agar plates, and fungi were maintained on Sabouraud Dextrose agar plates).

For data set [4], the system named is P. aeruginosa (2853). Description: MIC, micro-broth dilution. The data set is classed as cell-based. To be noted: Pseudomonas aeruginosa, 24 h, read-out: ANTIMICROBIAL ACTIVITY (MIC). The procedure:
as §2, §3
A general note: Dilution methods test growth across graded concentrations, often in twofold steps.

In data set [5] the test system is A. fumigatus (H1120). Description: MIC, micro-broth dilution. The class given is cell-based. As to conditions: Aspergillus fumigatus, 35° C., 24 hours, read-out: ANTIMICROBIAL ACTIVITY (MIC). The procedure: as §2, §3
Data set [6] relates to P. aeruginosa (10145). Nature of the data set: MIC, micro-broth dilution. To be noted: Pseudomonas aeruginosa, 35° C., 24 hours, read-out: ANTIMICROBIAL ACTIVITY (MIC). The data set is classed as cell-based. The procedure: as §2, §3
The test system of data set [7] is S. pneumoniae (6305). Description: MIC, micro-broth dilution. The class given is cell-based. As to conditions: Streptococcus pneumoniae, 35° C., 24 hours, read-out: ANTIMICROBIAL ACTIVITY (MIC). The procedure: as §2, §3
Data set [8] relates to E. coli (25922). Nature of the data set: MIC, micro-broth dilution. To be noted: Escherichia coli, 35° C., 24 hours, read-out: ANTIMICROBIAL ACTIVITY (MIC). The data set is classed as cell-based. On the procedure:
as §2, §3

The test system of data set [9] is S. agalactiae (13813). Nature of the data set: MIC, micro-broth dilution. The data set is classed as cell-based. As to conditions: Streptococcus agalactiae, 35° C., 24 hours, read-out: ANTIMICROBIAL ACTIVITY (MIC). On the procedure: as §2, §3
Data set [10] relates to A. fumigatus (H29709). Description: MIC, micro-broth dilution. The data set is classed as cell-based. As to conditions: Aspergillus fumigatus, 35° C., 24 hours, read-out: ANTIMICROBIAL ACTIVITY (MIC). On the procedure: as §2, §3
Data set [11] relates to K. pneumoniae (13883). Nature of the data set: MIC, micro-broth dilution. The class given is cell-based. To be noted: Klebsiella pneumoniae, 24 h, read-out: ANTIMICROBIAL ACTIVITY (MIC). On the procedure: as §2, §3
Data set [12] has as its system C. neoformans (90012). Nature of the data set: MIC, micro-broth dilution. The data set is classed as cell-based. As to conditions: Cryptococcus neoformans, 24 h, read-out: ANTIMICROBIAL ACTIVITY (MIC). On the procedure: as §2, §3
Data set [13] relates to S. pyrogenes (19615). Nature of the data set: MIC, micro-broth dilution. The data set is classed as cell-based. To be noted: 24 h, read-out: ANTIMICROBIAL ACTIVITY (MIC). On the procedure: as §2, §3
Data set [14] relates to E. faecium (T6480-9). Nature of the data set: MIC, micro-broth dilution. The data set is classed as cell-based. As to conditions: Enterococcus faecium, 35° C., 24 hours, read-out: ANTIMICROBIAL ACTIVITY (MIC). On the procedure: as §2, §3
The test system of data set [15] is C. neoformans (M68979). Description: MIC, micro-broth dilution. The data set is classed as cell-based. To be noted: Cryptococcus neoformans, 24 h, read-out: ANTIMICROBIAL ACTIVITY (MIC). On the procedure:
as §2, §3

Data set [16] relates to P. vulgaris (13315). Description: MIC, micro-broth dilution. The class given is cell-based. As to conditions: Proteus vulgaris, 35° C., 24 hours, read-out: ANTIMICROBIAL ACTIVITY (MIC). On the procedure: as §2, §3
For data set [17], the system named is S. marcescens (13880). Description: MIC, micro-broth dilution. The class given is cell-based. To be noted: for MIC: Serratia marcescens, 24 h, read-out: ANTIMICROBIAL ACTIVITY (MIC). The procedure: as §2, §3
Data set [18] has as its system S. aureus (29213). Description: MIC, micro-broth dilution. The data set is classed as cell-based. To be noted: Staphylococcus aureus, read-out: ANTIMICROBIAL ACTIVITY (MIC). The procedure:
as §2, §3

In data set [19] the test system is E. faecalis (29212). Description: MIC, micro-broth dilution. The data set is classed as cell-based. As to conditions: Enterococcus faecalis, 35° C., 24 hours, read-out: ANTIMICROBIAL ACTIVITY (MIC). The procedure:
as §2, §3

Data set [20] concerns E. cloacae (13047). Nature of the data set: MIC, micro-broth dilution. The class given is cell-based. To be noted: Enterobacter cloacae, 35° C., 24 hours, read-out: ANTIMICROBIAL ACTIVITY (MIC). On the procedure: as §2, §3
Data set [21] deals with S. epidermidis (12228). Description: MIC, micro-broth dilution. The data set is classed as cell-based. To be noted: Staphylococcus epidermidis, 35° C., 24 hours, read-out: ANTIMICROBIAL ACTIVITY (MIC). The procedure:
as §2, §3

Data set [22] deals with S. aureus (25923). Description: MIC, micro-broth dilution. The data set is classed as cell-based. As to conditions: Staphylococcus aureus, 35° C., 24 hours, read-out: ANTIMICROBIAL ACTIVITY (MIC). The procedure: as §2, §3
The subject of data set [23] is S. aureus (H20809). Nature of the data set: MIC, micro-broth dilution. As to conditions: Staphylococcus aureus, 24 h, read-out: ANTIMICROBIAL ACTIVITY (MIC). The data set is classed as cell-based. The procedure: as §2, §3
The subject of data set [24] is various groups of microorganisms. Nature of the data set: Antimicrobial activity (MIC), all microorganisms tested. The data set is classed as cell-based. On the procedure:
as §2, §3

Turning to `C[C@H](CCCNCCCNCCCCNCCCN)[C@H]1CC[C@H]2[C@@H]3CC[C@@H]4C[C@H](O)CC[C@]4(C)[C@H]3C[C@H](O)[C@]12C` [SM-7H], the MCC at 24 h in [1] (sheep, red blood cells) was found to be 50 µg/mL. The “hemolytic activity (in words)” value in [2] is reported as “unwanted hemolytic activity”. The MIC in [3] turned out to be 6.25 µg/mL (≈ 11.1 µM); in [4], 3.13 µg/mL (≈ 5.56 µM); in [5], 12.5 µg/mL (≈ 22.2 µM); in [6], 3.13 µg/mL (≈ 5.56 µM); in data set [7], 1.56 µg/mL (≈ 2.77 µM); in data set [8], 6.25 µg/mL (≈ 11.1 µM). Moreover, the MIC in [9] amounted to 0.78 µg/mL (≈ 1.39 µM); in data set [10], 12.5 µg/mL (≈ 22.2 µM); in [11] it was 12.5 µg/mL (≈ 22.2 µM); in data set [12] it was 0.39 µg/mL (≈ 0.693 µM); in [13] it was 0.39 µg/mL (≈ 0.693 µM); in data set [14], 6.25 µg/mL (≈ 11.1 µM). Besides, the MIC came out at 0.39 µg/mL (≈ 0.693 µM) in [15]; 6.25 µg/mL (≈ 11.1 µM) in data set [16]; 12.5 µg/mL (≈ 22.2 µM) in data set [17]; 0.78 µg/mL (≈ 1.39 µM) in data set [18] (S. aureus (29213), 35° C., 24 hours); 6.25 µg/mL (≈ 11.1 µM) in data set [19]; 12.5 µg/mL (≈ 22.2 µM) in data set [20]. Also, the MIC in data set [21] was found to be 0.39 µg/mL (≈ 0.693 µM). The “activity against S. marcescens” value in data set [17] (in words) is listed as “found even against S. marcescens; also recorded: effective against S. marcescens”.

For `C[C@H](CCC(=O)NCCCNCCCCNCCCN)[C@H]1CC[C@H]2[C@@H]3[C@H](O)C[C@@H]4C[C@H](O)CC[C@]4(C)[C@H]3C[C@H](O)[C@]12C` [SM-13, cholic acid-spermine conjugate], in [1] (sheep red blood cells, 24 hours at 37° C. in saline), the minimal hemolytic concentration (MHC) at 24 h was over 100 µg/mL. The MIC in data set [22] came to 6.25 µg/mL (≈ 10.5 µM); in data set [3], 12.5 µg/mL (≈ 21.1 µM); in [4], 25 µg/mL (≈ 42.2 µM); in data set [5], 25 µg/mL (≈ 42.2 µM); in data set [6], 25 µg/mL (≈ 42.2 µM); in [7] it was 25 µg/mL (≈ 42.2 µM). The MIC in data set [8] was 25 µg/mL (≈ 42.2 µM); in [9], 12.5 µg/mL (≈ 21.1 µM); in data set [11], over 100 µg/mL; in data set [23] it was 6.25 µg/mL (≈ 10.5 µM); in data set [13] it was 3.13 µg/mL (≈ 5.28 µM); in data set [14] it was 50 µg/mL (≈ 84.3 µM). Besides, the MIC in data set [15] is 3.13 µg/mL (≈ 5.28 µM); in data set [16] it was over 100 µg/mL; in data set [17] it was over 100 µg/mL; in data set [18] (24 h) it was 12.5 µg/mL (≈ 21.1 µM); in [19] it was 50 µg/mL (≈ 84.3 µM); in data set [20], over 100 µg/mL. Moreover, in data set [21], the MIC came out at 3.13 µg/mL (≈ 5.28 µM). For the same compound, the “antimicrobial activity (in words)” value in data set [24] was “lesser activity; also recorded: more activity than SM-8, SM-14, and SM-22”.

`C[C@H](CCC(=O)NCCCNCCCCNCCCN)[C@H]1CC[C@H]2[C@@H]3[C@H](OS(=O)(=O)O)C[C@@H]4C[C@H](OS(=O)(=O)O)CC[C@]4(C)[C@H]3C[C@H](OS(=O)(=O)O)[C@]12C` [SM-14]: the MIC in [24] (24 h, read-out: MICs against the various groups of microorganisms tested) was over 100 µg/mL.
